The nature of the data set: Plasma levels of MPA after intravenous continuous infusion in stable renal transplant patients. Type of data set: in vivo, human. Particulars: 12 stable renal transplant patients. The method, then:
12 ml of the solution of example 2 is given to 12 stable renal transplant patients as an intravenous continuous infusion into an arm vein over 30 min with a constant infusion rate of 0.4 ml/min.
Blood samples are taken for 36 h after dosing at the following time points: 0, 10 min, 20 min, 30 min, 45 min, 1.0 h, 1.5 h, 2.0 h, 4.0 h, 8.0 h, 12.0 h, 24.0 h, 36.0 h from the onset of infusion.

As for `COc1c(C)c2c(c(O)c1C/C=C(\C)CCC(=O)O)C(=O)OC2` [MPA, Mycophenolic acid], the “interpatient variability for AUC0-t” value (12 ml of solution of example 2, i.v. infusion over 30 min) is listed as “less than 25%”. Moreover, where the note is “human, iv, 12 ml of the solution of example 2, 12 ml of solution of example 2, i.v. infusion over 30 min, read-out: Mean t1/2 (converted)”, the half-life is 9.68 h. In addition, the AUC(0-t) (human, iv, 12 ml of the solution of example 2, 12 ml of solution of example 2, i.v. infusion over 30 min, sampling for 36 h, read-out: Mean MPA AUC0-t) came out at 42100 ng·h/mL.

The record behind these values is US20060189683A1, “Parenteral formulation of mycophenolic acid, a salt or prodrug thereof” (priority 2003, published 2006).
